The values below are quoted from earlier work in patent publication US6653081B2, “Methods for monitoring antiretroviral therapy and guiding therapeutic decision in the treatment of HIV/AIDS” (ViroLogic, Inc., priority 2000, dated 2003).

The subject of the series is codon 181 mutant HIV-1. Conditions: cited from earlier work.

For the molecule `CCc1cc(CCc2nc3ccccc3o2)c(=O)[nH]c1C` [L-696,229], the “susceptibility / activity in the presence of the Y181C mutation” value is listed as “reduced susceptibility”.

For `CCc1cc(NCc2nc3c(Cl)ccc(Cl)c3o2)c(O)nc1C` [L-697,661], the “susceptibility / activity in the presence of the Y181C mutation” value is “reduced susceptibility”.
